Our source for the melting point and IC50 values is patent US6642250B2, “1,8-naphthyridin-2(1H)-one derivatives” (Grelan Pharmaceutical Co., Ltd., priority 1999, dated 2003).

Usually melting point stands for the temperature of the solid-liquid transition. The IC50 is the midpoint of a concentration-inhibition curve.

One series deals with T1, PDE V (Sus scrofa, UniProt A0A287B475).
T1 construct: Type V PDE was also separated from porcine aortae with an anion exchange chromatography and used herein
In words: PDE inhibition, type V PDE (cGMP substrate). It counts as biochemical. As to conditions: PDE V from porcine aortae, cGMP 1 μM; read-out: Inhibition of PDE Isoenzymes (IC50) V. On the procedure: (§1) The assays for PDE activity were conducted according to Nicholson et al. method (Br. J. Pharmacol., 97, 889 (1989)).
(§2) Among PDE isozymes, type I, II, III and IV PDEs as used herein were separated from porcine hearts by using an anion exchange chromatography. Type V PDE was also separated from porcine aortae with an anion exchange chromatography and used herein.
(§3) Each PDE isozyme was admixed with ethylene glycol (EG) to adjust the final EG concentration to 30%, then stored at −20° C. and diluted when used. The enzymatic activity for PDE I and V was measured using cGMP as a substrate while that for POE II, III and IV was measured using cAMP.
(§4) [^3H]-cAMP (962 GBq/mmol; Amersham, 25 μl (100,000 cpm)) or [^3H]-cGMP (962 GBq/mmol; Amersham, 25 μl (100,000 cpm)) was added together with each PDE isozyme (25 μl) to an incubation buffer solution with the composition given below to adjust the total volume to 250 μl. Each test compound was dissolved in DMSO to adjust the final concentration to 1% (2.5 μl/tube).
(§5) Incubation buffer solution (pH7.5):
(§6) Tris-HCl (50 mM), magnesium chloride (6 mM), dithiothreitol
(§7) (2.5 mM), 5-nucleotidase (4 μg/ml), bovine serum albumin
(§8) (0.23 mg/ml), and cAMP (1 μM) [or cGMP (1 μM)]
(§9) A mixture of the aforementioned test compound solution and the buffer solution was incubated at 30° C. for 20 minutes. The reaction was quenched by admixing with 1 ml of anion exchange resin slurry (AG1-X8, 200-400 meshes, chloride form; Bio-Rad) to absorb unreacted substrates.
(§10) After the reaction stopped, the mixture was centrifuged at 200×g for 10 minutes, and the resulting supernatant was collected with vials in 250 μl aliquots. To each vial was added 5 ml of ACS-II (scintillator, Amersham). The radioactivity was measured with a liquid scintillator counter for [^3H]-adenosine or [^3H]-guanosine and set as the PDE activity. The measurements were conducted under conditions wherein the enzymatic activity was elevated by adding calmodulin (20 U/ml; Amersham) and calcium chloride (0.1 mM) for PDE-I and cGMP (1 μM) for PDE II, respectively.
(§11) The % inhibition was calculated for test compounds, and IC50 (the concentration of each test compound required for 50% inhibition) was obtained by Probit method. The aforementioned rolipram ((−)-isomer, optical purity: 91% e.e.) known as the PDE IV inhibitor in the prior art was used for the reference compound in this assay.

Another series deals with T2, PDE IV.
T2 construct: other: PDE IV from porcine hearts, cAMP 1 μM
In words: PDE inhibition, type IV PDE (cAMP substrate). It counts as biochemical. As to conditions: PDE IV from porcine hearts, cAMP 1 μM; read-out: Inhibition of PDE Isoenzymes (IC50) IV. On the procedure:
as §1, §2, §3, §4, §5, §6, §7, §8, §9, §10, §11
Further, for a comparison with compounds as disclosed in JP, A, 63-159382 (1988), the PDE-inhibiting activity was also measured for Compounds A and D in Table 1 of JP, A, 63-159382 (1988).

A further series concerns PDE I. In words: PDE inhibition, type I PDE (cGMP substrate, calmodulin/CaCl2 added). The class given is biochemical. As to conditions: PDE I from porcine hearts, cGMP 1 μM; read-out: Inhibition of PDE Isoenzymes (IC50) I. On the procedure: as §1, §2, §3, §4, §5, §6, §7, §8, §9, §10, §11
The next series has as its target T3, PDE II (Sus scrofa, UniProt F1SUV3).
T3 sequence (F1SUV3 1-945): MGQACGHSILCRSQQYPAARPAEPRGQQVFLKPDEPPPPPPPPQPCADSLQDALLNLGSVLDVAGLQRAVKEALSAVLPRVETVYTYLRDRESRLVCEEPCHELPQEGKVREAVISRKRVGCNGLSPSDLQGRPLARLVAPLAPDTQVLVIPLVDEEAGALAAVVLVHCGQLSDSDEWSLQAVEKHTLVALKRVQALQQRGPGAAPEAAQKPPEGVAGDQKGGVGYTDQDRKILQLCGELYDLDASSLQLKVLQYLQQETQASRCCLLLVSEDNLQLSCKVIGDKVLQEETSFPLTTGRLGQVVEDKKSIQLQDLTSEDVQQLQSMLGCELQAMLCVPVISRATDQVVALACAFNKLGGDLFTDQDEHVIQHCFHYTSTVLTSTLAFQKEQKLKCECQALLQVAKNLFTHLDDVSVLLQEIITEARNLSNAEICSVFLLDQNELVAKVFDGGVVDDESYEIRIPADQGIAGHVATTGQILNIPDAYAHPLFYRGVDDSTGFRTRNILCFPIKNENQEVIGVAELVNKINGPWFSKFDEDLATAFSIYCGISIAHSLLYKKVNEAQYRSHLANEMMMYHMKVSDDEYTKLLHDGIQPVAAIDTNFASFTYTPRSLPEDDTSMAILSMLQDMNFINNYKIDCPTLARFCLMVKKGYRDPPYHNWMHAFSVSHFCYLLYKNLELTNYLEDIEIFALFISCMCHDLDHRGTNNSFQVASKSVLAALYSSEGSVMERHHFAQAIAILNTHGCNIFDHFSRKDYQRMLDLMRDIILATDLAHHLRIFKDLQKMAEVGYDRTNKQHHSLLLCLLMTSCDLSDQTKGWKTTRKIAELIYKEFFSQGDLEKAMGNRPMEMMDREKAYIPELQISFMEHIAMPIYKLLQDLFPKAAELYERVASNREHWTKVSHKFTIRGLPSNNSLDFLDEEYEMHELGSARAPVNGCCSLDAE
The experiment in a line: PDE inhibition, type II PDE (cAMP substrate, cGMP added). As to conditions: PDE II from porcine hearts, cAMP 1 μM; read-out: Inhibition of PDE Isoenzymes (IC50) II. The class given is biochemical. On the procedure: as §1, §2, §3, §4, §5, §6, §7, §8, §9, §10, §11

A value given as a limit tells only on which side of the number the result lay.

For the compound `O=c1c(Cc2ccccn2)cc2cccnc2n1-c1cccc([N+](=O)[O-])c1` [Example 1, 1-(3-Nitrophenyl)-3-(pyridin-2-ylmethyl)-1,8-naphthyridin-2(1H)-one], the melting point fell in the range of 229 to 231 °C.

`O=c1c(Cc2ccncc2)cc2cccnc2n1-c1cccc([N+](=O)[O-])c1` [Example 4, 1-(3-Nitrophenyl)-3-(pyridin-4-ylmethyl)-1,8-naphthyridin-2(1H)-one] returned a melting point of 230 °C.

For `O=c1c(CCCc2ccncc2)cc2cccnc2n1-c1cccc(Cl)c1` [Example 9, 1-(3-Chlorophenyl)-3-[3-(pyridin-4-yl)propyl]-1,8-naphthyridin-2(1H)-one], the melting point was 148 to 149 °C.

For `Cc1ccc2cc(CCCc3ccncc3)c(=O)n(-c3cccc([N+](=O)[O-])c3)c2n1` [Example 11, 7-Methyl-1-(3-nitrophenyl)-3-[3-(pyridin-4-yl)propyl]-1,8-naphthyridin-2(1H)-one], the melting point lay within 165 to 166 °C.

Take `CSc1cccc(-n2c(=O)c(CCCc3ccncc3)cc3ccc(C)nc32)c1` [Example 12, 7-Methyl-1-(3-methylthiophenyl)-3-[3-(pyridin-4-yl)propyl]-1,8-naphthyridin-2(1H)-one]: the melting point was 158 to 159 °C.

For the compound `O=c1c(CCCCCCCc2ccncc2)cc2cccnc2n1-c1cccc([N+](=O)[O-])c1` [Example 18, 1-(3-Nitrophenyl)-3-[7-(pyridin-4-yl)heptyl]-1,8-naphthyridin-2(1H)-one], the melting point was 189 to 192 °C.

Regarding `O=c1c(CCc2cccs2)cc2cccnc2n1-c1cccc([N+](=O)[O-])c1` [Example 19, 1-(3-Nitrophenyl)-3-[2-(2-thienyl)ethyl]-1,8-naphthyridin-2(1H)-one], the melting point is 175 to 176 °C.

Consider `O=c1c(CCCc2ccco2)cc2cccnc2n1-c1cccc([N+](=O)[O-])c1` [Example 20, 1-(3-Nitrophenyl)-3-[3-(2-furyl)propyl]-1,8-naphthyridin-2(1H)-one], for which the melting point lay within 166 to 167 °C.

Turning to `O=c1c(CCCc2ccoc2)cc2cccnc2n1-c1cccc([N+](=O)[O-])c1` [Example 21, 1-(3-Nitrophenyl)-3-[3-(3-furyl)propyl]-1,8-naphthyridin-2(1H)-one], the melting point was in the range of 185 to 186 °C.

For `O=c1c(CCCCc2nc3ccccc3s2)cc2cccnc2n1-c1cccc([N+](=O)[O-])c1` [Example 22, 1-(3-Nitrophenyl)-3-[4-(benzothiazol-2-yl)butyl]-1,8-naphthyridin-2(1H)-one], the melting point lay in the range of 167.5 to 169.5 °C.

In the case of `N#Cc1cccc(-n2c(=O)c(CCCc3ccncc3)cc3cccnc32)c1` [Example 25, 1-(3-Cyanophenyl)-3-[3-(pyridin-4-yl)propyl]-1,8-naphthyridin-2(1H)-one], the melting point was in the range of 202 to 203.5 °C.

Regarding `CS(=O)(=O)c1cccc(-n2c(=O)c(CCCc3ccncc3)cc3cccnc32)c1` [Example 26, 1-(3-Methylsulfonylphenyl)-3-[3-(pyridin-4-yl)propyl]-1,8-naphthyridin-2(1H)-one], the melting point was in the range of 127 to 131 °C.

For `O=c1c(CCCc2ccccn2)cc2cccnc2n1-c1cccc([N+](=O)[O-])c1` [Example 28, 1-(3-Nitrophenyl)-3-[3-(pyridin-2-yl)propyl]-1,8-naphthyridin-2(1H)-one], the melting point is 201 to 202 °C.

`O=c1c(CCc2nc3ccccc3s2)cc2cccnc2n1-c1cccc([N+](=O)[O-])c1` [Example 29, 1-(3-Nitrophenyl)-3-[2-(benzothiazol-2-yl)ethyl]-1,8-naphthyridin-2(1H)-one] registered a melting point of 178 to 179 °C.

In turn, `O=c1c(CCCc2nc3ccccc3s2)cc2cccnc2n1-c1cccc([N+](=O)[O-])c1` [Example 30, 1-(3-Nitrophenyl)-3-[3-(benzothiazol-2-yl)propyl]-1,8-naphthyridin-2(1H)-one] gave a melting point of 185 to 186 °C.

As to `O=c1c(CCCc2nccs2)cc2cccnc2n1-c1cccc([N+](=O)[O-])c1` [Example 31, 1-(3-Nitrophenyl)-3-[3-(thiazol-2-yl)propyl]-1,8-naphthyridin-2(1H)-one], the melting point fell in the range of 198 to 199 °C.

Compound `N#Cc1cccc(-n2c(=O)c(Cc3ccncc3)cc3cccnc32)c1` [Example No. 3, 1-(3-Cyanophenyl)-3-(pyridin-4-ylmethyl)-1,8-naphthyridin-2(1H)-one] returned a melting point of 229 to 230 °C. The IC50 at PDE V was determined as 3.9 µM. Moreover, the IC50 with PDE IV amounted to 1.2 µM. Also, the IC50 in the series on PDE I is greater than 100 µM. Also, at PDE II, the IC50 is greater than 100 µM.

Regarding `O=c1c(CCCCc2ccccn2)cc2cccnc2n1-c1cccc([N+](=O)[O-])c1` [Example No. 13, 1-(3-Nitrophenyl)-3-[4-(pyridin-2-yl)butyl]-1,8-naphthyridin-2(1H)-one], the melting point lay within 163 to 165 °C. Further, the IC50 on PDE V worked out at 13 µM. In the series on PDE IV, the IC50 was 1.2 µM. Besides, in the series on PDE I, the IC50 worked out at 62 µM. Moreover, the IC50 at PDE II was 60 µM.

The compound `O=c1c(CCCCc2ccncc2)cc2cccnc2n1-c1cccc([N+](=O)[O-])c1` [Example No. 15, 1-(3-Nitrophenyl)-3-[4-(pyridin-4-yl)butyl]-1,8-naphthyridin-2(1H)-one] came in with a melting point of 168.8 to 169.6 °C. For the same compound, the IC50 at PDE V came to 8.7 µM. For the same compound, the IC50 with PDE IV was determined as 1.4 µM. Further, the IC50 in the series with PDE I came out at 100 µM. For the same compound, at PDE II, the IC50 came to 47 µM.

Regarding `O=c1c(CCCCCc2ccncc2)cc2cccnc2n1-c1cccc([N+](=O)[O-])c1` [Example No. 17, 1-(3-Nitrophenyl)-3-[5-(pyridin-4-yl)pentyl]-1,8-naphthyridin-2(1H )-one], the melting point lay within 188.8 to 189.6 °C. The IC50 on PDE V is greater than 100 µM. In addition, in the series on PDE IV, the IC50 turned out to be 2.2 µM. In addition, in the series on PDE I, the IC50 was greater than 100 µM. Moreover, on PDE II, the half-inhibitory concentration (IC50) is greater than 100 µM.
